Measured values: doi:10.1101/2023.11.24.568596v1 (biorxiv, 2023)

Legend:
Details in all cases: binder
DMPK1 = target: T1, DMPK1 (Homo sapiens, UniProt Q09013)
T1 sequence (Q09013 1-629): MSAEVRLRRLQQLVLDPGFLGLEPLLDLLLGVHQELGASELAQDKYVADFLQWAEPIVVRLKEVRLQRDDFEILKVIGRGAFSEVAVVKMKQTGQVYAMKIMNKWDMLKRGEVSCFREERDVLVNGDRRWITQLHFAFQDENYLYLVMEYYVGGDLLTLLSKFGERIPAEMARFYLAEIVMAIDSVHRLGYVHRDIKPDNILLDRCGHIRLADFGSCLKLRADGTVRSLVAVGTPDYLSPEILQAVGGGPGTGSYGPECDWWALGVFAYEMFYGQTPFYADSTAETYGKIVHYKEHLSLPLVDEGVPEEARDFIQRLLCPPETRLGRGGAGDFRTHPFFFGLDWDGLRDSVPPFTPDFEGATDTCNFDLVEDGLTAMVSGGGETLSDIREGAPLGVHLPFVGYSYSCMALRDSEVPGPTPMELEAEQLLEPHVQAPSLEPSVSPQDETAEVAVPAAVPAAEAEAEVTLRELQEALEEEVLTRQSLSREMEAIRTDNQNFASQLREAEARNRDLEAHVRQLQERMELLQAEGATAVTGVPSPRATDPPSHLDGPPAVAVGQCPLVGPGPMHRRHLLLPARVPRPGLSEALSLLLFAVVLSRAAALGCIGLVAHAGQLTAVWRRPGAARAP

JNK3 = JNK3 (Homo sapiens, UniProt P53779)
Sequence of JNK3 (P53779 whole entry): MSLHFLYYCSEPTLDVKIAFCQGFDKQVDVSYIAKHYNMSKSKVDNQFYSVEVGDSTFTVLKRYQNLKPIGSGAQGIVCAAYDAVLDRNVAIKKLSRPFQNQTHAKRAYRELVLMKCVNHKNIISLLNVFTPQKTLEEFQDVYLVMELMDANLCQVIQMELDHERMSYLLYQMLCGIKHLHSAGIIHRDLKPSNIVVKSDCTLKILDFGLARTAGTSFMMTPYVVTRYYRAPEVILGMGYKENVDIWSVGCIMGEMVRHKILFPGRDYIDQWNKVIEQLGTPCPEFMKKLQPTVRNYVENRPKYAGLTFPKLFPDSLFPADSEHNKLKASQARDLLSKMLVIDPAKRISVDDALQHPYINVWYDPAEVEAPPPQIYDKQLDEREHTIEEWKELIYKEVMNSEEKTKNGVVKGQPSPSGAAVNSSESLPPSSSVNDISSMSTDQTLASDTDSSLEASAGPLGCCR

EphA5 = EphA5 (Homo sapiens, UniProt P54756)
Sequence of EphA5 (P54756 whole entry): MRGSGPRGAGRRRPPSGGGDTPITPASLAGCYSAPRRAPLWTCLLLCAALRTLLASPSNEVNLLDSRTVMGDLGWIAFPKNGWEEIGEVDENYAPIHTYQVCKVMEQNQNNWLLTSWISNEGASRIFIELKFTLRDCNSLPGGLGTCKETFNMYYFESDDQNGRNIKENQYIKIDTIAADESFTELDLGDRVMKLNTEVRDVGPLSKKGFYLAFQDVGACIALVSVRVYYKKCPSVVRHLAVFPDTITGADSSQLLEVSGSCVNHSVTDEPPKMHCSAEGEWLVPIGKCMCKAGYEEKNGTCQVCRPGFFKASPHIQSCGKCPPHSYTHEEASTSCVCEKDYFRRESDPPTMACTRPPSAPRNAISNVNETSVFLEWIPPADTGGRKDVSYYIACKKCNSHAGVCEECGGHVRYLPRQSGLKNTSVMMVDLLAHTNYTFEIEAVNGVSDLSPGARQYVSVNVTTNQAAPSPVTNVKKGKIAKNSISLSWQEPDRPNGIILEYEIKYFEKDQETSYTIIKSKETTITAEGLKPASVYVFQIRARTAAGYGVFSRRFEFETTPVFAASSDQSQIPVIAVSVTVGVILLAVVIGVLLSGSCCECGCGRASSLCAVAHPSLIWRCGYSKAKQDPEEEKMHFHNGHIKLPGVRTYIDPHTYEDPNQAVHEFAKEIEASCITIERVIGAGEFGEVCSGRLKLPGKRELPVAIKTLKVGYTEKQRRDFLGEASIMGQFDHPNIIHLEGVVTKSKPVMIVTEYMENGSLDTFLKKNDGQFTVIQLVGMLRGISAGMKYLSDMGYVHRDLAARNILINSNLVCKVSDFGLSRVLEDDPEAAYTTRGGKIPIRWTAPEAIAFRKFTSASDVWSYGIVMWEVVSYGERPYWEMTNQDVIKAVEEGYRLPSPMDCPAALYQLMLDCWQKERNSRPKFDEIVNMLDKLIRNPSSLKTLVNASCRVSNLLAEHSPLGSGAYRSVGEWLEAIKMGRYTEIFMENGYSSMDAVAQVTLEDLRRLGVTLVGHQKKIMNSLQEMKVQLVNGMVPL

FGFR1 = FGFR1 (Homo sapiens, UniProt P11362)
Sequence of FGFR1 (P11362 whole entry): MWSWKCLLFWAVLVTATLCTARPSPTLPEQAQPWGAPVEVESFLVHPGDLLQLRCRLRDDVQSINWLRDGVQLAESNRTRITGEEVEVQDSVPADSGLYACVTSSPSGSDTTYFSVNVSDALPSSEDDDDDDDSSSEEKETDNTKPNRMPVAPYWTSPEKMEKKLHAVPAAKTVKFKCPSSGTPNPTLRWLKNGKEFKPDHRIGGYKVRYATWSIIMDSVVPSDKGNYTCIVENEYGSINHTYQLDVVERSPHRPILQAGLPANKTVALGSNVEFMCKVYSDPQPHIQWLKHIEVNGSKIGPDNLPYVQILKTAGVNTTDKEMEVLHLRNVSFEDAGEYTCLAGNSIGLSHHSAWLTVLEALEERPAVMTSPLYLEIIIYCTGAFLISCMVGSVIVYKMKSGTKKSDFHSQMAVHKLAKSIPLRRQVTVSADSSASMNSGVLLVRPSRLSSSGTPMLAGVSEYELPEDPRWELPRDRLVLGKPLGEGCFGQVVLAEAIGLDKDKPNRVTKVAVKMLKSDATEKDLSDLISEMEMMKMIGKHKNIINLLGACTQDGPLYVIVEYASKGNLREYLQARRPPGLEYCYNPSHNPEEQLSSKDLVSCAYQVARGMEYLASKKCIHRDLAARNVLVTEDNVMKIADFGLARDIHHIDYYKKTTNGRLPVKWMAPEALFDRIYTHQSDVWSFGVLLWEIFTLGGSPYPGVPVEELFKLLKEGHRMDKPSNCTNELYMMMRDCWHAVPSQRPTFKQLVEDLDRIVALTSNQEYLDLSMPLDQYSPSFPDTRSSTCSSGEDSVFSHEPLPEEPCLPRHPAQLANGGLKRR

FGFR2 = FGFR2 (Homo sapiens, UniProt P21802)
Sequence of FGFR2 (P21802 whole entry): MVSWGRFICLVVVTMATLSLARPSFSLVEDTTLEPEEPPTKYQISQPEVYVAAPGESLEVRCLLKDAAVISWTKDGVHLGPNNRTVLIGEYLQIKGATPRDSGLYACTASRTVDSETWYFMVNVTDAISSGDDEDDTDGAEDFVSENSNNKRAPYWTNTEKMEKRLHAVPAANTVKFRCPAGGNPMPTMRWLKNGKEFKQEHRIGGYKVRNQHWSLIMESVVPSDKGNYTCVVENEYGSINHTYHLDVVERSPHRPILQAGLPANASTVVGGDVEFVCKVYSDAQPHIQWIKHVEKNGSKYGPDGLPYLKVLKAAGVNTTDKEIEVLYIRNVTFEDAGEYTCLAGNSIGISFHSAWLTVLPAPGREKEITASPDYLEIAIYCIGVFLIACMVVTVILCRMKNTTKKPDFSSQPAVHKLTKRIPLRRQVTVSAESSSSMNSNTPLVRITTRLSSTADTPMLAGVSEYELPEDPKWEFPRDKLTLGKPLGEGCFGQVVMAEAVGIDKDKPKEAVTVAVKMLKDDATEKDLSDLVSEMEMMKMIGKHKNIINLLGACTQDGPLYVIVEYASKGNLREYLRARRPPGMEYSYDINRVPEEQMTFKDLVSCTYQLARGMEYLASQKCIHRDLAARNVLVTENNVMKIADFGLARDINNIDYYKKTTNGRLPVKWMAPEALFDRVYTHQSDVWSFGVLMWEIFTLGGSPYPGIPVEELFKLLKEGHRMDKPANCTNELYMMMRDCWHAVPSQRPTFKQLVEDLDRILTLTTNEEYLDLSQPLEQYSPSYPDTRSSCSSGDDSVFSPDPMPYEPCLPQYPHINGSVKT

MST2 = target: T2, MST2 (Homo sapiens, UniProt Q13188)
T2 sequence (Q13188 1-491): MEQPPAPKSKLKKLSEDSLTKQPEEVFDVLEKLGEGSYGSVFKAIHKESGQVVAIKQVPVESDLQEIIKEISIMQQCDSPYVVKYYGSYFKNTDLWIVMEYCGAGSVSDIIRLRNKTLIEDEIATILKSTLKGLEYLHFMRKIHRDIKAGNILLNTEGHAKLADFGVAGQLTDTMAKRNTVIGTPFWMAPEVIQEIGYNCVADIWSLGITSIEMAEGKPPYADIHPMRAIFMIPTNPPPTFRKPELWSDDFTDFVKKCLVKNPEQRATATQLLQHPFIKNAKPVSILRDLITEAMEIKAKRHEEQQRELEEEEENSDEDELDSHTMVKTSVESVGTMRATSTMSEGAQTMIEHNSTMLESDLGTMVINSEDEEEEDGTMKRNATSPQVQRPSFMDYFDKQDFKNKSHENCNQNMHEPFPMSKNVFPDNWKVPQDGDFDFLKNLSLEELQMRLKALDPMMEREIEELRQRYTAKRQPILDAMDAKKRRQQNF

JNK2 = JNK2 (Homo sapiens, UniProt P45984)
Sequence of JNK2 (P45984 whole entry): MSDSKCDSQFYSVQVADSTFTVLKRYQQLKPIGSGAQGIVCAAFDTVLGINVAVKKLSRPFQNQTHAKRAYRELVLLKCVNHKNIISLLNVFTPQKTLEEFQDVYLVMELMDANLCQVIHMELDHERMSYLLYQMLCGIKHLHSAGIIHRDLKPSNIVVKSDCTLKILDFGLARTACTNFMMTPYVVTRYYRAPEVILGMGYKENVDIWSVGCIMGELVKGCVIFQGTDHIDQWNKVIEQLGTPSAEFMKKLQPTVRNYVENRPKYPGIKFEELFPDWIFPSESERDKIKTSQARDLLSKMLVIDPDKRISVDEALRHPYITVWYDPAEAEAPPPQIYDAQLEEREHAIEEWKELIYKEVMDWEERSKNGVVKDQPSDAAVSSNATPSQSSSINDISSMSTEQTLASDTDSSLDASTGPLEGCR

CK2a1 = CK2a1 (Homo sapiens, UniProt P68400)
Sequence of CK2a1 (P68400 whole entry): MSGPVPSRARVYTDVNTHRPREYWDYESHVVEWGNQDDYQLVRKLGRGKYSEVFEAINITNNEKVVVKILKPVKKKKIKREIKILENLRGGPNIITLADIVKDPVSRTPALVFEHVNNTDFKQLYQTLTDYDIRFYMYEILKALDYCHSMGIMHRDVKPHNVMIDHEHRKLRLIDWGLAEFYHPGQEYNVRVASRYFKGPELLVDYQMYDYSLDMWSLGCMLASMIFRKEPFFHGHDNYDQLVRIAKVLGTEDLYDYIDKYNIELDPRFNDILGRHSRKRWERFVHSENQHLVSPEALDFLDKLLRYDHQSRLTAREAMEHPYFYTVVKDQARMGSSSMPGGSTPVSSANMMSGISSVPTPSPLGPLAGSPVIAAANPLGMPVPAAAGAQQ

MST1 = target: T3, MST1 (Homo sapiens, UniProt Q13043)
T3 sequence (Q13043 1-487): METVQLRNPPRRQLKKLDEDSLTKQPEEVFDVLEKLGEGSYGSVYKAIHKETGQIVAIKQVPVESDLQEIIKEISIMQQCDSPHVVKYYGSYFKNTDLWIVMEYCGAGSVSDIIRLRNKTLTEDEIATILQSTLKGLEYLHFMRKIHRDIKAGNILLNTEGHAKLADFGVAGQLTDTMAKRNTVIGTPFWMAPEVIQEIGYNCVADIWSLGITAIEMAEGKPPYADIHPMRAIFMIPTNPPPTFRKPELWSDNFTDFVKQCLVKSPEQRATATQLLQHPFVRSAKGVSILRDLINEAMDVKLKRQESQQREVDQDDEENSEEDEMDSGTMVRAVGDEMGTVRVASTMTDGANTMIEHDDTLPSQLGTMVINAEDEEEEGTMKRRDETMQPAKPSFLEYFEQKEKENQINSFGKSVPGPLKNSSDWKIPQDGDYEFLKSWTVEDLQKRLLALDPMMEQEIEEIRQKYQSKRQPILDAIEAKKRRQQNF

JNK1 = JNK1 (Homo sapiens, UniProt P45983)
Sequence of JNK1 (P45983 whole entry): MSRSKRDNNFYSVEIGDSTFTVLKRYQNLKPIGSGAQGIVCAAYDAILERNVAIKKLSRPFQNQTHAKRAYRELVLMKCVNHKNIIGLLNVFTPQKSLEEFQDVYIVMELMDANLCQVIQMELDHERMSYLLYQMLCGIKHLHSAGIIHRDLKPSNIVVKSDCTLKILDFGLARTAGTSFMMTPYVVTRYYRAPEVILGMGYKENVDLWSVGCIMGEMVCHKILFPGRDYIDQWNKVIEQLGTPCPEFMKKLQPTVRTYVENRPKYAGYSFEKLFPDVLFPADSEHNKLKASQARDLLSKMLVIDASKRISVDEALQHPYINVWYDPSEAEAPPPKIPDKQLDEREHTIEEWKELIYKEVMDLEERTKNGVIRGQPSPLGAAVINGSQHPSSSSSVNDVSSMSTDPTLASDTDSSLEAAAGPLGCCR

MAP2K6 = target: T4, MAP2K6 (Homo sapiens, UniProt P52564)
T4 sequence (P52564 1-334): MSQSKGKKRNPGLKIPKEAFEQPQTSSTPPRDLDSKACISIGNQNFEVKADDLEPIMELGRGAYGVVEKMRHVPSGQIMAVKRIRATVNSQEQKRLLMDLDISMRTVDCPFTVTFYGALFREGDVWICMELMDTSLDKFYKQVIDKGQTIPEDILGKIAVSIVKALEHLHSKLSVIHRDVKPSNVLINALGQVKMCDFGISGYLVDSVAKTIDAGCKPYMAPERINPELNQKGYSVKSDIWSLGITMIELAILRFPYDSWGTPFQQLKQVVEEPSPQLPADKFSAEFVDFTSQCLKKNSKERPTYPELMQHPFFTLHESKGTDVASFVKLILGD

CaMK1g = CaMK1g (Homo sapiens, UniProt Q96NX5)
Sequence of CaMK1g (Q96NX5 whole entry): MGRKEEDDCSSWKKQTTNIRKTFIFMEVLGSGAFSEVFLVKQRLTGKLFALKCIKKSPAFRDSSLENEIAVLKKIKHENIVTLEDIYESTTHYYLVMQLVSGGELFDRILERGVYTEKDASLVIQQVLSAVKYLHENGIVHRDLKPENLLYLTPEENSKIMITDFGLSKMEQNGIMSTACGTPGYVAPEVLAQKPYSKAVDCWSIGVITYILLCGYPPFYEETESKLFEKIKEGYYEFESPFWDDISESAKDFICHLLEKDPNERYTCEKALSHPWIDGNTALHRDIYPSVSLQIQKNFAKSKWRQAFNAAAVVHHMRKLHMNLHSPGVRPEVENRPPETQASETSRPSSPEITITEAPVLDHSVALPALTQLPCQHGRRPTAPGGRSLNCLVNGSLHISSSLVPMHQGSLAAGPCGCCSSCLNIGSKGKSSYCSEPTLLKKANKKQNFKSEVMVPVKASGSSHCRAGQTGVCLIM

CNc1ncc2cc(-c3ccc(-c4cccc(C)n4)cc3Cl)c(=O)n(CCCCN)c2n1 [compound 20, MRLW5]
ΔTm MRLW5 (20) (DMPK1): 0.8 °C | ΔTm MRLW5 (20) (JNK3): 1.3 °C | ΔTm MRLW5 (20) (EphA5): 3.3 °C | ΔTm MRLW5 (20) (FGFR1): 0.4 °C | ΔTm MRLW5 (20) (FGFR2): 1.9 °C | ΔTm MRLW5 (20) (MST2): 7.9 °C | ΔTm MRLW5 (20) (JNK2): 0.3 °C | ΔTm MRLW5 (20) (CK2a1): -0.2 °C | ΔTm MRLW5 (20) (MST1): 5.6 °C | ΔTm MRLW5 (20) (JNK1): 4.2 °C

CNc1ncc2cc(-c3ccc(-c4cccc(C)n4)cc3Cl)c(=O)n(CCC3CCNCC3)c2n1 [compound 22, 6-(2-Chloro-4-(6-methylpyridin-2-yl)phenyl)-2-(methylamino)-8-(2-(piperidin-4-yl)ethyl)pyrido[2,3-d]pyrimidin-7(8H)-one]
ΔTm 22 (DMPK1): -1.7 °C | ΔTm 22 (JNK3): 3.3 °C | ΔTm 22 (EphA5): 4.1 °C | ΔTm 22 (FGFR1): 1.1 °C | ΔTm 22 (FGFR2): 3.9 °C | ΔTm 22 (MST2): 8.0 °C | ΔTm 22 (JNK2): 0.3 °C | ΔTm 22 (CK2a1): -0.6 °C | ΔTm 22 (MST1): 6.0 °C | ΔTm 22 (JNK1): 4.0 °C

CNc1ncc2cc(-c3ccc(-c4cccc(C)n4)cc3Cl)c(=O)n(C[C@H]3CC[C@H](N)CC3)c2n1 [compound 23, 23]
ΔTm 23 (DMPK1): -2.8 °C | ΔTm 23 (JNK3): 1.3 °C | ΔTm 23 (EphA5): 4.0 °C | ΔTm 23 (FGFR1): 0.7 °C | ΔTm 23 (FGFR2): 2.9 °C | ΔTm 23 (MST2): 10.8 °C | ΔTm 23 (JNK2): 1.3 °C | ΔTm 23 (CK2a1): -0.4 °C | ΔTm 23 (MST1): 7.9 °C | ΔTm 23 (JNK1): 4.5 °C

Cc1cccc(-c2ccc(-c3cc4cnc(NC(CO)CO)nc4n(CCCCN)c3=O)c(Cl)c2)n1 [compound 24, 8-(4-Aminobutyl)-6-(2-chloro-4-(6-methylpyridin-2-yl)phenyl)-2-((1,3-dihydroxypropan-2-yl)amino)pyrido[2,3-d]pyrimidin-7(8H)-one]
ΔTm MR24 (24) (DMPK1): -1.3 °C | ΔTm MR24 (24) (JNK3): 3.7 °C | ΔTm MR24 (24) (EphA5): -0.4 °C | ΔTm MR24 (24) (FGFR1): 0.4 °C | ΔTm MR24 (24) (FGFR2): 0.8 °C | ΔTm MR24 (24) (MST2): 4.9 °C | ΔTm MR24 (24) (JNK2): 0.4 °C | ΔTm MR24 (24) (CK2a1): 0.0 °C | ΔTm MR24 (24) (MST1): -0.6 °C | ΔTm MR24 (24) (JNK1): 0.7 °C

Cc1cccc(-c2ccc(-c3cc4cnc(NCCCc5ccc(N)cc5)nc4n(CCCCN)c3=O)c(Cl)c2)n1 [compound 25, 8-(4-Aminobutyl)-2-((3-(4-aminophenyl)propyl)amino)-6-(2-chloro-4-(6-methylpyridin-2-yl)phenyl)pyrido[2,3-d]pyrimidin-7(8H)-one]
ΔTm 25 (DMPK1): -2.7 °C | ΔTm 25 (JNK3): 3.2 °C | ΔTm 25 (EphA5): 3.2 °C | ΔTm 25 (FGFR1): -0.4 °C | ΔTm 25 (FGFR2): 1.7 °C | ΔTm 25 (MST2): 9.4 °C | ΔTm 25 (JNK2): 2.6 °C | ΔTm 25 (CK2a1): -0.4 °C | ΔTm 25 (MST1): -1.4 °C | ΔTm 25 (JNK1): 4.5 °C

Cc1cccc(-c2ccc(-c3cc4cnc(NCCCN5CCOCC5)nc4n(CCCCN)c3=O)c(Cl)c2)n1 [compound 26, MR26]
ΔTm MR26 (26) (DMPK1): -1.3 °C | ΔTm MR26 (26) (JNK3): 1.1 °C | ΔTm MR26 (26) (EphA5): 3.5 °C | ΔTm MR26 (26) (FGFR1): 0.3 °C | ΔTm MR26 (26) (FGFR2): 1.4 °C | ΔTm MR26 (26) (MST2): 7.7 °C | ΔTm MR26 (26) (JNK2): 0.0 °C | ΔTm MR26 (26) (CK2a1): 0.6 °C | ΔTm MR26 (26) (MST1): -0.5 °C | ΔTm MR26 (26) (JNK1): 0.8 °C

Cc1cccc(-c2ccc(-c3cc4cnc(NCCCN5CCCC5=O)nc4n(CCCCN)c3=O)c(Cl)c2)n1 [compound 27, MR30]
ΔTm MR30 (27) (MAP2K6): 4.1 °C | ΔTm MR30 (27) (CaMK1g): 3.6 °C

Cc1cccc(-c2ccc(-c3cc4cnc(Nc5cc(C(F)(F)F)ccc5C)nc4n(CCCCN)c3=O)c(Cl)c2)n1 [compound 28, 8-(4-Aminobutyl)-6-(2-chloro-4-(6-methylpyridin-2-yl)phenyl)-2-((2-methyl-5-(trifluoromethyl)phenyl)amino)pyrido[2,3-d]pyrimidin-7(8H)-one]
ΔTm 28 (MAP2K6): 7.5 °C | ΔTm 28 (CaMK1g): 5.7 °C

Cc1cccc(-c2ccc(-c3cc4cnc(NCCCN5CCNCC5)nc4n(CCCCN)c3=O)c(Cl)c2)n1 [compound 29, 8-(4-Aminobutyl)-6-(2-chloro-4-(6-methylpyridin-2-yl)phenyl)-2-((3-(piperazin-1-yl)propyl)amino)pyrido[2,3-d]pyrimidin-7(8H)-one]
ΔTm 29 (MAP2K6): 1.9 °C | ΔTm 29 (CaMK1g): 5.0 °C

Cc1cccc(-c2ccc(-c3cc4cnc(Nc5ccc(CCCO)cc5)nc4n(CCCCN)c3=O)c(Cl)c2)n1 [compound 30, 8-(4-Aminobutyl)-6-(2-chloro-4-(6-methylpyridin-2-yl)phenyl)-2-((4-(3-hydroxypropyl)phenyl)amino)pyrido[2,3-d]pyrimidin-7(8H)-one]
ΔTm 30 (MAP2K6): 9.4 °C | ΔTm 30 (CaMK1g): 7.5 °C

Cc1cccc(-c2ccc(-c3cc4cnc(Nc5ccc(O)cc5)nc4n(CCCCN)c3=O)c(Cl)c2)n1 [compound 31, 8-(4-Aminobutyl)-6-(2-chloro-4-(6-methylpyridin-2-yl)phenyl)-2-((4-hydroxyphenyl)amino) pyrido[2,3-d]pyrimidin-7(8H)-one]
ΔTm 31 (MAP2K6): 9.4 °C | ΔTm 31 (CaMK1g): 5.5 °C

Cc1cccc(-c2ccc(-c3cc4cnc(Nc5ccc(C)c(O)c5)nc4n(CCCCN)c3=O)c(Cl)c2)n1 [compound 32, 8-(4-Aminobutyl)-6-(2-chloro-4-(6-methylpyridin-2-yl)phenyl)-2-((3-hydroxy-4-methylphenyl)amino)pyrido[2,3-d]pyrimidin-7(8H)-one]
ΔTm 32 (MAP2K6): 8.9 °C | ΔTm 32 (CaMK1g): 6.4 °C
